# What was measured:
# Assay in all cases: combination Emax (second highest fraction inhibited in the dose matrix, 72 h); higher = more inhibition; extreme values may be limits of the assay
# CAL-72 (Osteosarcoma) = system: CAL-72 (Osteosarcoma)
# Method in brief: (§1)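 Cell lines in DMEM/F12 or RPMI with 10% FBS were plated in 1536-well plates, held 24 hours at 37°C, 5% CO2, then given two-drug dose matrices for 72 hours (DMSO typically 0.2%). Viability was read by CellTiter-Glo 2.0 luminescence and scaled as inhibition from 0 (vehicle wells) to 1 (blank wells). Combination Emax is the second-highest inhibition in the matrix; Bliss excess is observed combination effect minus expected EA + EB − EA·EB, EA and EB being single-agent effects.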
# LOXIMVI (Melanoma) = system: LOXIMVI (Melanoma)
# Method in brief: as §1
# [1] = system: HuCCT1 (Biliary Tract Carcinoma)
# Method in brief: as §1
# [2] = system: SNU-449 (Hepatocellular Carcinoma)
# Method in brief: as §1
# [3] = system: ESS-1 (Other Solid Carcinomas)
# Method in brief: as §1
# [4] = system: WSU-NHL (B-Cell Non-Hodgkin's Lymphoma)
# Method in brief: as §1
# [5] = system: HH (T-Cell Non-Hodgkin's Lymphoma)
# Method in brief: as §1
# EW-11 (Ewing's Sarcoma) = system: EW-11 (Ewing's Sarcoma)
# Method in brief: as §1
# [6] = system: TGBC1TKB (Biliary Tract Carcinoma)
# Method in brief: as §1
# [7] = system: LS-123 (Colorectal Carcinoma)
# Method in brief: as §1
# [8] = system: LNZTA3WT4 (Low Grade Glioma)
# Method in brief: as §1
Structure (SMILES),combination Emax (CAL-72 (Osteosarcoma)),combination Emax (LOXIMVI (Melanoma)),combination Emax [1],combination Emax [2],combination Emax [3],combination Emax [4],combination Emax [5],combination Emax (EW-11 (Ewing's Sarcoma)),combination Emax [6],combination Emax [7],combination Emax [8]
"C[C@@H]1COCCN1c1cc(C2([S@](C)(=N)=O)CC2)nc(-c2ccnc3[nH]ccc23)n1 [AZD6738] + C1CC(C1)(C(=O)[O-])C(=O)[O-].N.N.[Pt+2] [Carboplatin] (first compound max 10 µM, 7x7, partner max 10 µM)",0.718,0.619,0.683,0.227,0.98,0.849,0.22,0.584,0.302,0.626,0.806
"O=C(c1cc(Cc2n[nH]c(=O)c3ccccc23)ccc1F)N1CCN(C(=O)C2CC2)CC1 [Olaparib] + CN(CC[C@H](CSC1=CC=CC=C1)NC2=C(C=C(C=C2)S(=O)(=O)NC(=O)C3=CC=C(C=C3)N4CCC(CC4)[C@H](C5=CC=CC=C5C6=CC=C(C=C6)Cl)O)S(=O)(=O)C(F)(F)F)CCO [AZD4320] (first compound max 10 µM, 7x7, partner max 1 µM)",0.183,0.447,0.193,0.11,0.787,0.674,0.21,0.923,0.366,0.512,0.168
"Cc1c2c(nn1C)CSCc1cc(n(C)n1)CSc1cc(c3ccccc3c1)OCCCc1c(C(=O)O)n(C)c3c-2c(Cl)ccc13 [AZD5991] + CC(=O)O[C@H]1C(=O)[C@@]2(C)[C@H]([C@H](OC(=O)c3ccccc3)[C@]3(O)C[C@H](OC(=O)[C@H](O)[C@@H](NC(=O)c4ccccc4)c4ccccc4)C(C)=C1C3(C)C)[C@]1(OC(C)=O)CO[C@@H]1C[C@@H]2O [Paclitaxel] (first compound max 1 µM, 7x7, partner max 3 µM)",0.736,0.755,0.549,0.325,1,0.998,0.87,0.895,0.412,0.463,0.899
"C[C@@H](Nc1cc(F)cc(F)c1)c1cc(C(=O)N(C)C)cc2c(=O)cc(N3CCOCC3)oc12 [AZD8186] + C1CN(CCC1(C(=O)N[C@@H](CCO)C2=CC=C(C=C2)Cl)N)C3=NC=NC4=C3C=CN4 [AZD5363] (first compound max 10 µM, 7x7, partner max 10 µM)",0.29,0.287,0.413,0.198,0.549,0.9,0.299,0.579,0.559,0.408,0.357
"Cc1c2c(nn1C)CSCc1cc(n(C)n1)CSc1cc(c3ccccc3c1)OCCCc1c(C(=O)O)n(C)c3c-2c(Cl)ccc13 [AZD5991] + Nc1ccn([C@@H]2O[C@H](CO)[C@@H](O)C2(F)F)c(=O)n1 [Gemcitabine] (first compound max 1 µM, 7x7, partner max 0.3 µM)",0.613,0.835,0.506,0.316,0.961,0.967,0.879,0.868,0.255,0.404,0.633
"O=C(c1cc(Cc2n[nH]c(=O)c3ccccc23)ccc1F)N1CCN(C(=O)C2CC2)CC1 [Olaparib] + COc1nnc2ccc(N3CCC(c4ccc(OCCN5CCN(C)C(=O)[C@H]5C)cc4)CC3)nn12 [AZD5153] (first compound max 10 µM, 7x7, partner max 1 µM)",0.475,0.864,0.456,0.208,0.695,0.929,0.382,0.712,0.24,0.359,0.357
"Cc1c2c(nn1C)CSCc1cc(n(C)n1)CSc1cc(c3ccccc3c1)OCCCc1c(C(=O)O)n(C)c3c-2c(Cl)ccc13 [AZD5991] + CS(=O)(=O)CCNCc1ccc(-c2ccc3ncnc(Nc4ccc(OCc5cccc(F)c5)c(Cl)c4)c3c2)o1 [Lapatinib] (first compound max 1 µM, 7x7, partner max 10 µM)",0.83,0.535,0.482,0.547,0.702,0.909,0.868,0.572,–,0.394,0.447
"C[C@@H](Oc1cc(-c2cnn(C3CCNCC3)c2)cnc1N)c1c(Cl)ccc(F)c1Cl [Crizotinib] + Cn1cnc2c(F)c(Nc3ccc(Br)cc3Cl)c(C(=O)NOCCO)cc21 [Selumetinib] (first compound max 10 µM, 7x7, partner max 10 µM)",0.59,0.926,0.725,0.455,0.773,0.98,0.0931,0.81,0.147,0.62,0.456

# From the supplement of paper PMC11061612
